# Reference: ChEMBL document CHEMBL1157502, “Carbaporphyrin ketals as potential agents for a new photodynamic therapy treatment of leishmaniasis” (Bioorg Med Chem, 2008)
# Calls of active or inactive are those of the source. The rule behind the calls is not given here.
# Tests used:
# Assay type in all cases: functional, organism-based
# [1] = tested on: Leishmania tarentolae; test: Growth inhibition of Leishmania tarentolae axenic promastigotes after 2 days relative to ethanol
# [2] = tested on: Leishmania tarentolae; test: Growth inhibition of Leishmania tarentolae axenic promastigotes upto 40 uM
# [3] = tested on: Leishmania tarentolae; test: Growth inhibition of Leishmania tarentolae promastigotes assessed as mitochondrial superoxide production at 5 to 10 uM after 3 hrs by confocal fluorescence microscopy
# [4] = tested on: Leishmania tarentolae; test: Growth inhibition of light-illuminated Leishmania tarentolae promastigotes assessed as enhancement of mitochondrial superoxide production at 5 to 10 uM after 3 hrs by confocal fluorescence microscopy
# [5] = tested on: Leishmania tarentolae; test: Induction of mitochondrial singlet oxygen production in Leishmania tarentolae promastigotes at 2 uM by confocal fluorescence microscopy
SMILES,Activity [1],Activity [2],Activity [3],Activity [4],Activity [5]
CCC1=C(CC)/C2=C/c3[nH]c(c(C)c3CC)/C=C3/c4ccccc4/C(=C/C4=NC(=C\C1=N2)/C(CC)=C4C)C3(OC)OC,Dose-dependent effect,inactive,Active,Active,Active
CCOC1(OCC)/C2=C\C3=NC(=C\C4=NC(=C\c5[nH]c(c(C)c5CC)/C=C\1c1ccccc12)/C(CC)=C4CC)/C(CC)=C3C,Dose-dependent effect,inactive,Active,Active,
